Results from a melting point compilation (Tetko et al.; mined from patent text by program, amines drawn as free bases though some values may be those of a salt).

Row | Compound | melting point [°C]
1 | COC(=O)C1=C(Cl)/C(=N/OS(=O)(=O)c2ccc(C)cc2)CC(c2ccc(Cl)c(OC)c2F)N1 (stereo unspecified) | 62 to 64
2 | ClCc1ccc(Oc2ccc3ccc(Oc4ccc(CCl)cc4)cc3c2)cc1 | 95 to 97
3 | CC(C)C(OC(=O)NC1(C(=O)O)CC1)OC(=O)C1CCCCC1 (stereo unspecified) | 156 to 158
4 | COc1cccc2sc(NN)nc12 | 215 to 220
5 | O=P(O)(O)C(O)(Cn1ccnc1)P(=O)(O)O | 235 to 241
6 | Fc1cc2c(cc1F)CC(n1c(-c3nnn[nH]3)c[nH]c1=S)CC2 (stereo unspecified) | 195 to 212
7 | COc1ccc(C)cc1NC(=O)Nc1ccc(N2CCN(C(=O)C3CCCCC3)CC2)cc1 | 222
8 | O=C(O)c1ccc(CCCC2SCC(=O)N2CCC2(O)CCCCC2)s1 (stereo unspecified) | 122 to 123
9 | Cc1nc2cccc(CNC(=O)OC(C)(C)C)c2c(=O)n1C1CCC(=O)NC1=O (stereo unspecified) | 206 to 208
10 | CC(=O)Nc1ccc2c(c1)C(=O)C1(CC1)O2 | 211 to 212
11 | O=C(NCCN1CCCC1)c1cccc(-c2cccc(OCCc3ccc(Cl)cc3Cl)n2)c1 | 115 to 116
12 | O=S(=O)(Cl)c1ccc(Nc2nccc(Cl)n2)cc1 | 192 to 195
13 | CC1(C(O)(Cc2ccccc2Cl)Cn2cncn2)CCCCC1 (stereo unspecified) | 105
14 | CCc1nc2c(C)cc(C)nc2n1Cc1ccc(C2(C(=O)O)Cc3ccccc3C2)s1 | 243 to 244
15 | CCOC(=O)C(=Cc1cccn2c(Br)cnc12)N=[N+]=[N-] | 90 to 92
16 | CC(=O)NCC1CN(c2ccc(NC=O)c(F)c2)C(=O)O1 (stereo unspecified) | 196 to 198
17 | COC(=O)c1ccc(N2C3CCC2CN(CC(=O)N2CC=C(c4cccc5ccsc45)CC2)C3)nc1 | 153 to 154
18 | CC[C@@H]1CN(c2c(F)cc3c(=O)c(C(=O)O)cn4c3c2OC[C@@H]4C)C[C@H]1N | 189 to 191
19 | NS(=O)(=O)c1ccc(NC(=O)CNc2ccccc2)c(F)c1 | 197 to 198
20 | CN(CCCCNC(=O)c1cc2ccccc2s1)C1CCc2ncsc2C1 (stereo unspecified) | 105
21 | O=C(NC1CC1)c1cc([N+](=O)[O-])[nH]n1 | 206
22 | NC(=O)c1cccc(-c2nc(=O)c3ccccc3s2)n1 | 295
23 | Cc1c(C(=O)Cl)c(C)c2cccc(C)c2c1C | 216
24 | CC(C)[C@H](O)CP(=O)(O)CCCN | 187 to 189
25 | NCCCCCCc1ccc(C2=NNC(=O)CC2)cc1 | 153 to 154
26 | Nc1nc2ccccc2n(-c2ccc(Cl)cc2)c1=O | 254 to 255

Row | Compound | melting point [°C]
27 | O=C1C2=NCCCN2c2ccc(F)cc21 | 150 to 152
28 | Nc1ccc2c(c1)S(=O)(=O)NCCO2 | 179
29 | O=[N+]([O-])CS(=O)c1cccc2c1oc1ccccc12 (stereo unspecified) | 174 to 176
30 | COc1ccc(-c2cc(Cl)cc3c2OC(C(F)(F)F)C(C(=O)O)=C3)cc1 (stereo unspecified) | 194 to 196
31 | CCCCCCCCCCCC(=O)NCCCSc1ccncc1 | 71 to 72
32 | CC(=O)c1cc(Cl)cc(Oc2ncccc2C(=O)NCc2ccc(C(C)(C)O)cc2)c1 | 110 to 112
33 | O=C(O)CCc1ccc(OCc2ccccc2)cc1OCc1ccccc1 | 125 to 127
34 | COc1cc2ncc(C#N)c(Nc3cc(Cl)c(O)c(Cl)c3)c2cc1OC | > 250
35 | CCOC(=O)c1cnc(Nc2ccccc2)[nH]c1=O | 267 to 269
36 | CCOC(=O)Nc1ccc2oc(-c3ccccc3)cc2c1 | 164
37 | O=C(N[C@@H]1CCC[C@H]1O)C(O)=CC(=O)c1cc(Cc2ccc(F)cc2F)cn(Cc2ccccc2F)c1=O | 55 to 57
38 | CC1(C)COc2ccc(C(=O)O)cc2OC1 | 172 to 173
39 | CC(=C(c1ccc(F)cc1)c1ccc(F)cc1)P(c1ccccc1)c1ccccc1 | 88 to 90
40 | CC(=O)Nc1ccn([C@@H]2CC[C@H](OC(C)=O)[C@@H](OC(C)=O)[C@H]2OC(C)=O)c(=O)n1 (racemic) | 226
41 | Nc1c(I)cc(Cl)cc1[N+](=O)[O-] | 134 to 135
42 | CCOC(=O)c1cccc(Nc2nccc(-c3cccnc3)n2)c1 | 197 to 199
43 | CS(=O)(=O)Nc1cc2occ(Br)c(=O)c2cc1Oc1ccccc1 | 215 to 216
44 | CC(=O)C(Cc1ccccc1)(N=Nc1ccc(C(O)(C(F)(F)F)C(F)(F)F)cc1)C(N)=O (stereo unspecified) | 128 to 133
45 | C=C(C)C(=O)Nc1ccc(NC(=O)Nc2ccc(C#N)cc2)c(O)c1 | 247 to 249
46 | Cc1[nH]c2ccc(CCN(CC(C)C)CC(C)C)cc2c1C(=O)OCc1ccccc1 | 134 to 135
47 | CC(C)=NN=C1NCC(=O)N1 | 182 to 187
48 | COc1cc2c(cc1[N+](=O)[O-])C(C)CC1c3ccccc3CC1(C)C2 (stereo unspecified) | 90 to 94
49 | COc1ccnc(CSc2nc3cc(OC(F)(F)F)ccc3[nH]2)c1 | 134 to 135
50 | CC(=O)c1c(-c2cccs2)[nH]c(-c2ccncc2)c1C | 231 to 232
51 | COCN(c1cccc2cc(C(=O)/N=C/N(C)C)n(COC)c12)S(=O)(=O)c1cccs1 | 146 to 147
